Test results: US6790833B2, “Antifungal and antibacterial agents” (priority 2001, dated 2004)
Entries after “also recorded” stand apart in the source; their conditions may differ.

What was measured:
fungi or bacteria = experiment: Antifungal and antibacterial activity assays, overall statements; assay type: cell-based
Protocol: (§1) Two fold serial dilutions of each peptide (ranging from 100 μM down to 1.5625 μM) in 20 μl of 10 mM Na phosphate buffer, pH 7.4, were incubated with an equal volume of bacterial or fungal strain (10^5 cells/ml) for 1.5 hours at 30° C. for S. cerevisiae and 37° C. for the rest of strains tested. At the end of incubation, the samples were diluted 20 fold and aliquots (˜120 cells) of each sample were plated on appropriate plates depending on the strain tested, as indicated above. Plates were incubated for 1 to 7 days aerobically or anaerobically, depending on the strain tested. Colonies were then counted, and the loss of cell viability was plotted as a function of protein concentration. Fungicidal activities against C. albicans and C. neoformans were also tested at 4° C.
(§2) A time course study of peptide-induced killing was statistically analyzed by student t-test.

C. albicans [1] = experiment: Antifungal (cidal) activity assay, loss of cell viability; assay type: cell-based, Candida albicans; conditions: for ED50 (95% confidence limit) C. albicans: Example 2, 1.5 hours, 37°, 10 mM Na phosphate buffer pH 7.4; for Loss of Cell viability (%): 6.25 μM
Source text: (§3) Azole-sensitive (# 2-76) and azole-resistant (# 12-99) clinical isolates of C. albicans were a gift from Dr. Theodore C. White (University of Washington and Seattle Biomedical Research Institute, Seattle, Wash.). An azole-sensitive Candida glabrata (C. glabrata) was purchased from ATCC (ATCC 90030) and its azole-resistant counterpart, clinical isolate 65C, was obtained from Dr. John E. Bennett (National Institute of Allergy and Infectious Diseases, Bethesda, Md.). A clinical isolate of Candida krusei (C. krusei) was obtained from the Erie County Medical Center, Buffalo, N.Y. Amphotericin B-sensitive (CN2) and -resistant (CN2843) C. neoformans strains were obtained from AIDS patients with cryptococcal meningitis and were generously provided by Dr. John H. Rex (University of Texas Medical School, Houston, Tex.). Additionally, Saccharomyces cerevisiae (S. serevisiae) strain S288C was provided by Dr. D. Kosman, Department of Biochemistry, University at Buffalo, the State University of New York. All fungi were streaked and grown on SAB plates at 37° C., except S. cerevisiae, which was grown at 30° C. until large colonies were formed. One colony was then picked and resuspended in Na phosphate buffer (pH 7.4) and the concentration was adjusted to 1×10^5 cell/ml for the antifungal assay described below.
as §1
(§4) To test the effect of inhibitors of oxidative phosphorylation in the mitochondrial system on peptide-induced killing, C. albicans and C. neoformans (CN2) were preincubated with either 20 mM sodium azide or 300 μM CCCP for 2 hours at 37° C. The cidal assays were then carried out as described above. In separate control experiments, both inhibitors were evaluated for their toxicity toward C. albicans and C. neoformans (CN2) in the absence of peptides. At these concentrations, neither compound had any cidal effect. In addition, the fungicidal activities of MUC7 20-mer and Hsn-5 (25 μM) in 10 mM Na phosphate buffer (pH 7.4) in the presence of varying concentrations (1-50 mM) of Ca^++ (as CaCl2) or Mg^++ (as MgCl2) were examined.
as §2
(§5) Two fold serial dilutions of each peptide (ranging from 50 or 25 μM down to 1.5625 μM) in 20 μl of 10 mM Na phosphate buffer, pH 7.4, were incubated with an equal volume of fungal strain (10^5 cells/ml, also in Na phosphate buffer) for 1.5 hours at 37°. At the end of incubation, the samples were diluted 20 fold with the same buffer and aliquots (˜150 cells) of each sample were plated on SAB plates. Plates were incubated for 1 to 2 days for C. albicans and C. neoformans, respectively. Colonies were then counted, and the loss of cell viability was plotted as a function of protein concentration. The statistical analysis was as described in Example 1.

C. neoformans [2] = experiment: as above; assay type: cell-based, Cryptococcus neoformans; conditions: for ED50 (95% confidence limit) C. neoformans: Example 2, 1.5 hours, 37°, 10 mM Na phosphate buffer pH 7.4; for Loss of Cell viability (%): 6.25 μM
Source text: as §3, §1, §4, §2, §5

A. actinomycetemcomitans = experiment: Antibacterial (cidal) activity assay, loss of cell viability; assay type: cell-based, Actinobacillus actinomycetemcomitans
Protocol: (§6) The following bacterial strains were tested: Streptococcus mutans (S. mutans) GS-5, Streptococcus gordonii (S. gordonii) Challis, Escherichia coli (E. coli) HB101, Pseudomonas aeruginosa (P. aeruginosa) ATCC 17648, Actinobacillus actinomycetemcomitans (A. actinomycetemcomitans) NCTC9710, Porphyromonas gingivalis (P. gingivalis) 381 and W50. S. mutans, S. gordonii, A. actinomycetemcomitans and P. aeruginosa were grown anaerobically by candle jar extinction at 37° C. on TSB plates. P. gingivalis was grown in anaerobic chamber at 37° C. on sheep blood agar plates. E. coli was grown aerobically at 37° C. on LB agar plates.
as §1, with “Plates were incubated for 1 to 7 days aerobically or anaerobically, depending on the strain tested.” left out, “Fungicidal activities against C. albicans and C. neoformans were also tested at 4° C.” left out
as §2

S. mutans = experiment: as above; assay type: cell-based; conditions: Streptococcus mutans, read-out: ED50 (95% confident limit)
Protocol: as §6
as §1, with “Plates were incubated for 1 to 7 days aerobically or anaerobically, depending on the strain tested.” left out, “Fungicidal activities against C. albicans and C. neoformans were also tested at 4° C.” left out
as §2

C. neoformans [3] = experiment: Fluorescence light and confocal microscopy, internalization of FITC-labeled peptide; assay type: cell-based, Cryptococcus neoformans; conditions: 50 μM, 45-90 minutes, 37° C.
Protocol: (§7) The internalization of MUC7 20-mer into fungi was visualized in C. albicans and C. neoformans. Untreated cells (10^7) or cells preincubated with 20 mM sodium azide, 300 μM CCCP, 50 mM Ca^++ or 50 mM Mg^++ were then treated with 50 μM FITC-MUC7 20-mer for 45-90 minutes in 100 μl of Na phosphate buffer (10 mM, pH 7.4) at 37° C. Untreated cells were also incubated with 50 μM FITC-MUC7 20-mer at 4° C. The cells were then extensively washed with phosphate buffer, concentrated and resuspended in the same buffer. The cell suspension was then quickly mounted on slides with sealed cover-slips. Fluorescence light micrographs were made on a Nikon Optiphot microscope, with a fluorescent light source.
(§8) The intracellular localization of FITC-MUC7-20mer was investigated in a double-labeling experiment using MitoTracker Red mitochondrial probe. C. albicans and C. neoformans were incubated with 500 nM MitoTracker Red in 10 mM Na phosphate buffer, pH 7.4 for 15 minutes at room temperature, washed three times with the same buffer, and subsequently incubated with 50 μM FITC-MUC7 20-mer. After 20 min. incubation at 37° C., the suspension was washed with phosphate buffer extensively. The cell suspension was then quickly mounted on slides with sealed cover-slips. Confocal fluorescence microscopy was performed with a BioRad MRC-1024 confocal microscope system with Krypton-argon laser which outputs 488, 568 and 647 nm excitation line and Nikon upright epifluorescence microscope (Zeiss 60× oil immersion planApp objective with 1.4 numerical aperture).
(§9) The internalization of MUC7 20-mer and 12-mer-3 into fungi was visualized using FITC labeled peptides. Cells (10^7) were treated with 50 μM FITC-MUC7 20-mer or 12-mer-3 for 45-90 mins in 100 μl of Na phosphate buffer (10 mM, pH 7.4) at 37° C. The cells were then processed and visualized as described in Example 1.

C. albicans [4] = experiment: as above; assay type: cell-based, Candida albicans; conditions: 50 μM, 45-90 minutes, 37° C.
Protocol: as §7, §8, §9

## from the N-terminus of the 20-mer (amino acids 32-39), SEQ ID NO.10: LAHQKPFI (OTHER INFORMATION: 8-mer-N; Amino acids 32-3 9 of the MUC7D1 peptide.) [Peptide 8-mer-N]
Fungi or bacteria
  antibacterial activity: did not exhibit antibacterial activity
C. albicans [1]
  ED50 (95% confidence limit) C. albicans: No activity
C. albicans [1]; listed as N-terminal 8-mer
  ED50 (95% confidence limit) C. albicans: no antifungal activity
C. neoformans [2]
  ED50 (95% confidence limit) C. neoformans: No activity
C. neoformans [2]; listed as N-terminal 8-mer
  ED50 (95% confidence limit) C. neoformans: no antifungal activity

## C[C@H](NC(=O)[C@H](Cc1cnc[nH]1)NC(=O)[C@H](CO)NC(=O)[C@@H](N)CC(=O)O)C(=O)N[C@@H](CCCCN)C(=O)N[C@@H](CCCNC(=N)N)C(=O)N[C@@H](Cc1cnc[nH]1)C(=O)N[C@@H](Cc1cnc[nH]1)C(=O)NCC(=O)N[C@@H](Cc1ccc(O)cc1)C(=O)N[C@@H](CCCCN)C(=O)N[C@@H](CCCNC(=N)N)C(=O)N[C@@H](CCCCN)C(=O)N[C@@H](Cc1ccccc1)C(=O)N[C@@H](Cc1cnc[nH]1)C(=O)N[C@@H](CCC(=O)O)C(=O)N[C@@H](CCCCN)C(=O)N[C@@H](Cc1cnc[nH]1)C(=O)N[C@@H](Cc1cnc[nH]1)C(=O)N[C@@H](CO)C(=O)N[C@@H](Cc1cnc[nH]1)C(=O)N[C@@H](CCCNC(=N)N)C(=O)NCC(=O)N[C@@H](Cc1ccc(O)cc1)C(=O)O [Hsn-5, reference compound]
A. actinomycetemcomitans; 100 μM
  loss of cell viability at the highest concentration tested: 24%
Fungi or bacteria
  concentration for killing bacteria relative to killing fungi: more than 10 fold
C. albicans [1]; C. albicans, 300 μM CCCP or 20 mM sodium azide, 2 hours
  effect of pretreatment with CCCP or sodium azide on peptide-induced killing: rescued Candida cells from killing
C. albicans [1]; C. albicans, 4° C.
  potency at 4° C.: limited potency
C. albicans [1]; C. albicans, 5 min
  Loss of Cell viability (%): 0 + 0%
C. albicans [1]; C. albicans, 15 min
  Loss of Cell viability (%): 1 + 3%
C. albicans [1]; C. albicans, 30 min
  Loss of Cell viability (%): 11 + 4%
C. albicans [1]; C. albicans, 45 min
  Loss of Cell viability (%): 34 + 2%
C. albicans [1]; C. albicans, 90 min
  Loss of Cell viability (%): 42 + 3%
C. albicans [1]; C. albicans, Na phosphate buffer, 25 μM
  Peptide-induced killing without the cations: 100%
C. neoformans [2]; C. neoformans, 300 μM CCCP or 20 mM sodium azide, 2 hours
  effect of pretreatment with CCCP or sodium azide on peptide-induced killing: unable to do the same
C. neoformans [2]; C. neoformans, 4° C.
  activity at 4° C.: hardly affected
C. neoformans [2]; C. neoformans, 5 min
  Loss of Cell viability (%): 9 ± 2%
C. neoformans [2]; C. neoformans, 15 min
  Loss of Cell viability (%): 43 + 3%
C. neoformans [2]; C. neoformans, 30 min
  Loss of Cell viability (%): 59 + 5%
C. neoformans [2]; C. neoformans, 45 min
  Loss of Cell viability (%): 64 + 1%
C. neoformans [2]; C. neoformans, 90 min
  Loss of Cell viability (%): 71 + 7%
C. neoformans [2]; C. neoformans, Na phosphate buffer, 25 μM
  Peptide-induced killing without the cations: 100%

## [H]/N=C(/N)N[C@H]1[C@H](O)[C@@H](O)[C@H](O[C@@H]2O[C@@H](C)[C@](O)(C=O)[C@H]2O[C@@H]2O[C@@H](CO)[C@H](O)[C@@H](O)[C@@H]2NC)[C@@H](N/C(N)=N\[H])[C@@H]1O [streptomycin]
S. mutans
  EC50: 64 µM
A. actinomycetemcomitans; Aggregatibacter actinomycetemcomitans, read-out: ED50 (95% confident limit)
  EC50: 2700 nM

## 12-mer with both cysteines replaced by alanine, SEQ ID NO.13: RKSYKALHKRAR (OTHER INFORMATION: 12-mer-4 variant of the 12-mer) [Peptide 12-mer-4]
C. albicans [1]
  ED50 (95% confidence limit) C. albicans: did not alter 12-mer antifungal activity
C. neoformans [2]
  ED50 (95% confidence limit) C. neoformans: did not alter 12-mer antifungal activity

## 12-mer with arginine and lysine at position 40 and 41 replaced by alanine, SEQ ID NO.11: AASYKCLHKRCR (OTHER INFORMATION: 12-mer-2 variant of the 12-mer) [Peptide 12-mer-2]
C. neoformans [2]
  ED50 (95% confidence limit) C. neoformans: comparable to that of unaltered 12-mer

## 12-mer (amino acids 40-51 of MUC7D1), SEQ ID NO.6: RKSYKCLHKRCR (OTHER INFORMATION: 12-mer; Amino acids 40-51 of the MUC7D1 peptide.) [Peptide 12-mer]
Fungi or bacteria
  cidal activity against fungi or bacteria: active against a variety of fungi and bacteria

## 12-mer with positions 40, 41, 44, 48, 49 and 51 replaced by alanine, SEQ ID NO.12: AASYACLHAACA (OTHER INFORMATION: 12-mer-3 variant of the 12-mer) [Peptide 12-mer-3]
C. neoformans [3]
  internalization of FITC-labeled peptide: No internalization
C. albicans [4]
  internalization of FITC-labeled peptide: No internalization
C. albicans [1]
  ED50 (95% confidence limit) C. albicans: no anticandidal activity
C. neoformans [2]
  ED50 (95% confidence limit) C. neoformans: cidal activity was diminished; also recorded: No activity
